From patent US20260083751A1, “ALLOSTERIC MODULATORS OF ANDROGEN RECEPTOR COACTIVATOR RECRUITMENT FOR CRPC THERAPY” (University of Pittsburgh – Of the Commonwealth System of …, priority 2022, published 2026) come the findings set out here.

The target of experiment [1] is T1, AR-LBD PPI interactions with TIF2 and SRC1 coactivators (Homo sapiens, UniProt P10275).
T1 construct: AR-LBD amino acids 658-919 expressed as a fusion protein with Gal4-DBD; expressed in transfected cells; host or cells: HEK 293, transient co-transfection
T1 sequence (P10275 659-920): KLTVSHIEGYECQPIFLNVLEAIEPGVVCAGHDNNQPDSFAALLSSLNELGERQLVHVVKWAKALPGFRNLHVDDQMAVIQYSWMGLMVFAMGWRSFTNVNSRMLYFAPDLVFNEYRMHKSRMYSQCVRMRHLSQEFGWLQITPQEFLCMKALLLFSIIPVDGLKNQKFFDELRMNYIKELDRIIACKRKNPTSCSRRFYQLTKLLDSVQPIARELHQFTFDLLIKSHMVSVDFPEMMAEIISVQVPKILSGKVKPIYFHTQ
Description: TIF2 and SRC1 mammalian 2-hybrid assays, results stated jointly. To be noted: for IC50: both M2H assays. It counts as cell-based. An excerpt: TIF2 and SRC1 Mammalian 2-Hybrid Assays: The 5×GAL4-TATA-luciferase reporter plasmid was a gift from Dr. Richard Maurer from the Oregon Health and Science University (Gonzalez et al., Cell 1989, 59:675-80), and constructs pGAL4-hAR-658-919 (AR-LBD amino acids 658-919 expressed as a fusion protein with Gal4-DBD) (Askew et al., J Biol Chem 2007, 282:25801-16), pVP16-SRC1 (full-length SRC1 expressed as a fusion with VP16 activation domain) (He et al., J Biol Chem 1999, 274:37219-25) and pVP16-Empty vectors were kindly provided to us by Dr. Elizabeth Wilson, from UNC Chapel Hill. pVP16-TIF2 was generated as described previously (Fancher et al., Assay Drug Dev Technol. 2019, 17:364-386). HEK 293 cells were transiently co-transfected with 5 ng of pGal4-AR-LBD, 10 ng of either pVP16-TIF2 or pVP16-SRC1, and 20 ng of the 5×Gal4-TATA-Luc reporter as described previously (Ibid.). HEK 293 cells were bulk co-transfected with the three plasmids that had been individually incubated with FuGENE® 6 transfection agent (Fugent LLC, Middleton, WI) at a 3:1 ratio for 25 min at room temperature (RT) in serum free media (SFM) and then combined with HEK 293 cells that were suspended in DMEM (Cellgro10013CV) with 2 mM L-glutamine (Invitrogen) that was supplemented with 10% fetal bovine serum, and 5,000 cells in a volume of 40 μL were seeded into the wells of white opaque 384-well assay plates (Greiner Bio-one, #781080) and cultured overnight at 37° C., 5% CO2, and 95% humidity. […] 25 μL of BrightGlo® reagent (Promega, Madison, WI) was added to the plate and the relative luminescence units (RLUs) were captured on a SpectraMax® M5e microtiter plate reader (Molecular Devices, LLC, San Jose, CA).

Experiment [2] deals with PC-3, DU-145, LNCaP, C4-2, and 22Rv1 PC cell lines. Description: Prostate cancer cell line growth inhibition assays, results stated across cell lines. It counts as cell-based. The note with it: for GI50s against all 5 PCa cell lines: all 5 cell lines, 72 h; for Relative potency in AR positive versus AR negative PC cell lines: 72 h growth inhibition; for GI50s against the 3 AR+ PCa cell lines: LNCaP, C4-2, 22Rv1. The protocol: Prostate Cancer Cell Line Growth Inhibition Assays: The PC-3, DU-145, LNCaP, C4-2, and 22Rv1 PC cell line growth inhibition assays have been described previously (Fancher et al., Assay Drug Dev Technol. 2016, 14:453-477; Fancher et al., Assay Drug Dev Technol. 2019, 17:364-386). On day 1, each PC cell line was harvested, counted, and seeded into two 384-well assay plates, a time zero (T0) and a time 72 h (T72) plate. PC cell lines were all seeded at 1,000 cells per well in 45 μL of tissue culture media in uncoated white clear bottom 384-well assay plates (VWR, #82050-076) using a Matrix electronic multichannel pipette (Thermo Fisher Scientific, Waltham, MA) and cultured overnight at 37° C., 5% CO2, and 95% humidity. On day 2, 25 μL of the CellTiter-Glo® (CTG) (Promega Corporation, Madison, WI) detection reagent was dispensed into the wells of the TO assay plate using a Matrix electronic multichannel pipette, and the RLUs were captured on the SpectraMax® M5e (Molecular Devices LLC, Sunnyvale, CA) microtiter plate reader. Also on day 2, 5 μL of compounds were transferred into the test wells of the T72 384-well assay plates which were returned to the incubator for 72 h. Control wells received DMSO alone. On day 5, 25 μL of the CTG detection reagent was dispensed into the wells of the T72 assay plate using a Matrix electronic multichannel pipette, and the RLU's were captured on the SpectraMax® M5e microtiter plate reader platform.
For the 96-well AR-LBD H^3-DHT radioligand binding assay, eight minimum and maximum plate control wells were utilized to normalize the data. For the PC cell line growth inhibition assays the DMSO control data from the TO and T72 assay plates was used to assess the dynamic range of the T0 to T72 cell growth, and to calculate S:B ratios and Z′-factor coefficient statistics for the assay signal window (T0 to T72). To normalize the 72 h compound exposure PC growth inhibition data, the signals from the compound treated wells were processed and expressed as % of the T72 DMSO plate controls. IC50 and GI50 values for each of the bioassays were calculated using GraphPad Prism 9 software to plot and fit data to curves using the Sigmoidal dose response variable slope equation Y=Bottom+[Top-Bottom]/[1+10^(Log EC50−X)*HillSlope].

The mark [3] stands for this setting: IC50s in TIF2 and SRC-1 M2H assays (potency range in words).
Setting [4] is: read-out: IC50s, DHT-induced AR-LBD PPI interactions with TIF2 and SRC1 coactivators.

Where two headings read alike, the source gives them in different places.

Take `Cc1ccccc1-c1cc(O)c2c(c1)CN(c1nc(C(N)=O)cs1)CCO2` [Compound S1-1]: in experiment [1], the “Fold difference of M2H IC50s to IC50 for AR-TIF2 PPI disruption” value is on record as about 5 fold. Besides, the IC50 in experiment [1] (setting [3]) fell in the range of 1 to 10 µM. In experiment [2], the “GI50s against all 5 PCa cell lines” value is 29 to 70 µM.
The molecule `Cc1nc(N)cc(N2CCOc3c(O)cc(-c4ccccc4C)cc3C2)n1` [Compound S1-2] came in with an IC50 in experiment [1] (setting [3]) of 1 to 10 µM. Besides, the “Relative potency in AR positive versus AR negative PC cell lines” value (“Relative potency” below) in experiment [2] is on record as “equipotent against all 5 PC cell lines”.
The molecule `Cc1ccccc1-c1cc(O)c2c(c1)CN(c1nccs1)CCO2` [Compound S1-3] gave an IC50 in experiment [1] (setting [3]) of 1 to 10 µM. In experiment [2], the “Relative potency” value is listed as “differential cytotoxicity in AR positive PC cell lines” and the “GI50s against all 5 PCa cell lines” value lay within 44 to 75 µM.
As to `Cc1ccccc1-c1cc(O)c2c(c1)CN(c1cc(N)ncn1)CCO2` [Compound S1-4], the “Relative potency” value in experiment [2] is “equipotent against all 5 PC cell lines”.
Take `COc1cc(-c2ccc(C)s2)cc2c1OCCN(c1nc(C(N)=O)cs1)C2` [Compound S1-5]: the IC50 lay in the range of 10 to 100 µM in experiment [1] (setting [3]) and 20 to 42 µM in experiment [1] (setting [4]). For the same molecule, the “GI50s against all 5 PCa cell lines” value in experiment [2] is over 100 µM.
With `Cc1nsc(NC(=O)N2CCC(Sc3ccccc3C)CC2)n1` [Compound S2-6], in experiment [1], the “Fold M2H IC50s less than corresponding AR-TIF2 biosensor IC50s” value was about 10 fold. Further, in experiment [1] (CoA selectivity), the “Fold lower IC50 for TIF2 than SRC1” value is given as about 5 fold. This molecule also gave an IC50 in experiment [1] (setting [3]) of under 1 µM. Moreover, the “GI50s against the 3 AR+ PCa cell lines” value in experiment [2] lay within 14 to 19 µM.
Take `Cc1nsc(NC(=O)N2CCC(Cn3ccnc3)CC2)n1` [Compound S2-7]: in experiment [2], the “GI50s against the 3 AR+ PCa cell lines” value lay within 30 to 64 µM and the “GI50s against all 5 PCa cell lines” value is 30 to 94 µM. Further, in experiment [2] (PC-3 and DU-145), the “GI50s in AR negative cell lines” value was about 94 µM.
Regarding `Cc1c(-c2ccccc2F)[nH]c2ccc(CNC(=O)CCc3cn[nH]c3)cc12` [Compound S3-11], the values for the IC50 in experiment [1] (setting [3]) and in experiment [1] (setting [4]) were 1 to 10 µM and under 10 µM, respectively. For the same molecule, the “Relative potency” value in experiment [2] is reported as “differential cytotoxicity in AR positive PC cell lines”.
For `Cc1c(-c2ccccc2F)[nH]c2ccc(CNC(=O)CCc3cnccn3)cc12` [Compound S3-12] the same measures were 1 to 10 µM, under 10 µM and “roughly equipotent against all 5 PC cell lines”.
With `CC(=O)NCCC(=O)NCc1ccc2[nH]c(-c3ccccc3F)c(C)c2c1` [Compound S3-13], the IC50 in experiment [1] (setting [3]) fell in the range of 10 to 100 µM; in experiment [1] (setting [4]), 10 to 20 µM. Also, the “GI50s against 2 AR+ PCa cell lines” value in experiment [2] (2 AR+ cell lines, not named) was 68 to 70 µM. Besides, the “Relative potency” value in experiment [2] was “roughly equipotent against all 5 PC cell lines”.
Regarding `Cc1c(-c2ccccc2F)[nH]c2ccc(CNC(=O)c3ccc(CO)o3)cc12` [Compound S3-14], the IC50 is 1 to 10 µM in experiment [1] (setting [3]) and under 10 µM in experiment [1] (setting [4]). Further, the “Relative potency” value in experiment [2] was “differential cytotoxicity in AR positive PC cell lines”. For the same molecule, in experiment [2], the “GI50s against the 3 AR+ PCa cell lines” value was in the range of 30 to 100 µM.
In the case of `Cc1c(-c2ccc(F)cc2)[nH]c2ccc(CNC(=O)c3ccc(CO)o3)cc12` [Compound S3-15], the IC50 was 1 to 10 µM in experiment [1] (setting [3]) and under 10 µM in experiment [1] (setting [4]). Moreover, the “Relative potency” value in experiment [2] was “roughly equipotent against all 5 PC cell lines”.
For `Cc1cccc2c(-c3ccc(O)c(F)c3)c[nH]c12` [Compound S3-17] the same measures were 10 to 100 µM, 10 to 20 µM and “roughly equipotent against all 5 PC cell lines”.
In the case of `CNC(=O)c1ccc(-c2c[nH]c3c(C)cccc23)cc1` [Compound S3-21], the IC50 in experiment [1] (setting [3]) is 10 to 100 µM; in experiment [1] (setting [4]), 10 to 20 µM. Also, in experiment [2] (4 cell lines, not named), the “GI50s against 4 PCa cell lines” value was 13 to 55 µM. The “Relative potency” value in experiment [2] was “differential cytotoxicity in AR positive PC cell lines”.
